Key:
CLK3 kinase = CLK3 kinase (Homo sapiens, UniProt P49761); test: CLK3 kinase activity assay (Z-lyte FRET); format: biochemical; settings: Z-lyte Ser/Thr 18 peptide, 156 μM ATP, 1 h at room temperature;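 also: kinase activity read as coumarin/fluorescein emission ratio by FRET, unphosphorylated peptide as 0% and phosphorylated peptide as 100% control, values from non-linear regression of dose-response curves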
[1] = test system: Wnt pathway activity (SW480 colon carcinoma cells stably expressing the Sp5-Luc reporter); test: Wnt pathway activity screening assay (Sp5-Luc reporter gene assay); settings: Homo sapiens, SW480, Table 4; SW480 cells stably expressing Sp5-Luc reporter, 10-point dose-response from 10 μM, 36 to 48 hours
CLK2 kinase = CLK2 kinase (Homo sapiens, UniProt P49760); test: CLK2 kinase activity assay (Z-lyte FRET); format: biochemical; settings: Z-lyte Ser/Thr 6 peptide, 60 μM ATP, 1 h at room temperature;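 also: FRET read-out as coumarin to fluorescein emission ratio, unphosphorylated peptide as 0% and phosphorylated peptide as 100% controls, duplicate reactions, non-linear regression fit of dose-response curves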
[2] = test system: primary human mesenchymal stem cells (hMSCs); test: Chondrogenesis screening using primary human mesenchymal stem cells; format: cell-based; settings: Homo sapiens, Mesenchymal stem cells, hMSC chondrogenesis; for EC50: concentration required to induce 50% levels of chondrogenesis with TGF-β3 as positive control, read-out: Conc (nM) of 50% TGF-β3 activity; for Emax: maximum activity relative to TGF-β3 (10 ng/mL) positive control, read-out: Max. Activity as % TGF-β3 activity
Procedure, shortened: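 Derived values are EC50 for 50% chondrogenesis, maximal activity and the dose giving it. These come from nodule area in passage 3–6 primary hMSCs, expressed as fold change over the mean of 3 same-plate DMSO wells, 2–3 replicates per concentration. TGF-β3 served as positive control.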

Sequence of CLK2 kinase (P49760 whole entry): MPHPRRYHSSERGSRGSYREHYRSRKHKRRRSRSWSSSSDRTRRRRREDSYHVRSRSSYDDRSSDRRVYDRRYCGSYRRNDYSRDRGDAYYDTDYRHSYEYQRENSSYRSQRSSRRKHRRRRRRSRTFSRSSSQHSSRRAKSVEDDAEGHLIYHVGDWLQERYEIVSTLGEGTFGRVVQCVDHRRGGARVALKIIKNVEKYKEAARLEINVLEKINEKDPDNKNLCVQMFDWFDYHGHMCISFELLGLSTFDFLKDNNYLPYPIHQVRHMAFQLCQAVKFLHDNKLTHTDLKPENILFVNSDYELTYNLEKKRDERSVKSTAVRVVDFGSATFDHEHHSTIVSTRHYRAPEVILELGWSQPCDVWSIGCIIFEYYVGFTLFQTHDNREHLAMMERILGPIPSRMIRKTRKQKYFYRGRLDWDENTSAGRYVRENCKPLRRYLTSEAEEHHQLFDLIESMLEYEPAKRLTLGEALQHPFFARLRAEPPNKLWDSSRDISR
Sequence of CLK3 kinase (P49761 whole entry): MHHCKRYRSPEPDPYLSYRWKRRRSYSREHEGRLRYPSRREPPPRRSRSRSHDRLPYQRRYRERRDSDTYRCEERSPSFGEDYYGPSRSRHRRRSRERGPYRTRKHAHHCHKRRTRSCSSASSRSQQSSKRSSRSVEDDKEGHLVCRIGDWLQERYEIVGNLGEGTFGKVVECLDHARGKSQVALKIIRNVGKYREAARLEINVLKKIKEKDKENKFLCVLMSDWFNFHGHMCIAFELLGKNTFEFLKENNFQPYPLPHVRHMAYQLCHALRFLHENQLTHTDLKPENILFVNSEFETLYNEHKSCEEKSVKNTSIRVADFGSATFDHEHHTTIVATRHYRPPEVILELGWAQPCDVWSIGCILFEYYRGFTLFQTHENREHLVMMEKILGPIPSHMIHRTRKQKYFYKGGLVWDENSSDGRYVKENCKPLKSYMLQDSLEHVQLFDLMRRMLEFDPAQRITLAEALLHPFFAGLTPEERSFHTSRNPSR

| Compound | EC50 (CLK3 kinase) [nM] | EC50 [1] [nM] | EC50 (CLK2 kinase) [nM] | EC50 [2] [nM] | Emax [2] [%] |
| --- | --- | --- | --- | --- | --- |
| Cc1ccc(-c2cncc3[nH]c(-c4n[nH]c5cnc(-c6cncc(N)c6)cc45)nc23)s1 [compound 274] | 203 | 10.9 | 11 | 100 | 162 |
| Cc1ccc(-c2cncc3[nH]c(-c4n[nH]c5ccc(-c6cncc(N)c6)nc45)nc23)s1 [compound 276] | 9 | 40.7 | 2 | 30 | 79.4 |
| Cc1ccc(-c2cncc3[nH]c(-c4n[nH]c5cnc(-c6cncc(NC(=O)C7CCC7)c6)cc45)nc23)s1 [compound 277] | 29 | 10.1 | 6 | 100 | 231 |
| CN(C)CCNc1cc(F)cc(-c2cncc3[nH]c(-c4n[nH]c5ncc(-c6cccnc6)cc45)nc23)c1 [compound 278] | 36 | 21 | 5 | 300 | 129 |
| CCCCC(=O)Nc1cncc(-c2ccc3[nH]nc(-c4nc5c(-c6cc(F)cc(NCCN(C)C)c6)cncc5[nH]4)c3n2)c1 [compound 279] | 93 | > 10000 | 2 | 10 | 64.7 |
| CCCCC(=O)Nc1cncc(-c2ccc3[nH]nc(-c4nc5c(-c6cc(F)cc(NCCN(C)C)c6)ccnc5[nH]4)c3n2)c1 [compound 280] | 79 | > 10000 | 2 | 10 | 71.4 |
| CC(C)CC(=O)Nc1cncc(-c2ccc3[nH]nc(-c4nc5c(-c6cc(F)cc(NCCN(C)C)c6)cncc5[nH]4)c3c2)c1 [compound 281] | 25 | 22 | 6 | – | 82 |
| CC(C)Nc1cncc(-c2ccc3[nH]nc(-c4nc5c(-c6cc(F)cc(NCCN(C)C)c6)nccc5[nH]4)c3c2)c1 [compound 282] | 50 | 202 | 4 | 30 | 85.1 |
| CC(C)Nc1cncc(-c2cnc3[nH]nc(-c4nc5c(-c6cc(F)cc(NCCN(C)C)c6)nccc5[nH]4)c3c2)c1 [compound 283] | 33 | 154 | 4 | 30 | 82.9 |
| CCNCc1cncc(-c2ccc3[nH]nc(-c4nc5c(-c6cc(F)cc(NCCN(C)C)c6)nccc5[nH]4)c3n2)c1 [compound 285] | 90 | > 10000 | 1 | – | 35.6 |
| CCNCc1cncc(-c2ccc3[nH]nc(-c4nc5c(-c6cc(F)cc(NCCN(C)C)c6)ccnc5[nH]4)c3n2)c1 [compound 286] | 82 | > 10000 | 3 | 20.6 | 149 |
| Cc1ccncc1-c1cc2c(-c3nc4c(-c5cc(F)cc(CNS(C)(=O)=O)c5)cccc4[nH]3)n[nH]c2cn1 [compound 288] | 37 | 30.4 | 11 | 30 | 81.8 |
| Cc1ccncc1-c1cnc2[nH]nc(-c3nc4c(-c5cc(F)cc(CNS(C)(=O)=O)c5)nccc4[nH]3)c2c1 [compound 289] | 39 | 124 | 4 | 10 | 92.8 |
| Cc1ccncc1-c1cc2c(-c3nc4c(-c5cc(F)cc(CNS(C)(=O)=O)c5)ccnc4[nH]3)n[nH]c2cn1 [compound 291] | 54 | 109 | 32 | 30 | 70 |
| CC(C)CC(=O)Nc1cncc(-c2ccc3[nH]nc(-c4nc5c(-c6cc(F)cc(CNS(C)(=O)=O)c6)cncc5[nH]4)c3c2)c1 [compound 292] | 60 | 5 | 9 | 100 | 118 |
| CS(=O)(=O)NCc1cc(F)cc(-c2nccc3[nH]c(-c4n[nH]c5ccc(-c6cncnc6)cc45)nc23)c1 [compound 293] | 186 | 40.5 | 16 | 30 | 73.1 |
| CN(C)Cc1cncc(-c2cnc3[nH]nc(-c4nc5c(-c6cc(F)cc(N7CCOCC7)c6)cncc5[nH]4)c3c2)c1 [compound 294] | 25 | 21 | 1 | 30 | 114 |
| COc1cccc(-c2nccc3[nH]c(-c4n[nH]c5ccc(-c6cccnc6)nc45)nc23)c1 [compound 295] | 96 | 377 | 2 | 30 | 50.6 |
| COc1cccc(-c2cncc3[nH]c(-c4n[nH]c5ccc(-c6cccnc6)nc45)nc23)c1 [compound 296] | 55 | > 10000 | 1 | 30 | 59.2 |

| Compound | EC50 (CLK3 kinase) [nM] | EC50 [1] [nM] | EC50 (CLK2 kinase) [nM] | EC50 [2] [nM] | Emax [2] [%] |
| --- | --- | --- | --- | --- | --- |
| COc1cccc(-c2ccnc3[nH]c(-c4n[nH]c5ccc(-c6cccnc6)nc45)nc23)c1 [compound 297] | 84 | 1610 | 1 | 100 | 50.5 |
| Fc1cccc(-c2cncc3[nH]c(-c4n[nH]c5ncc(-c6cccnc6)cc45)cc23)c1 [compound 300] | 122 | 572 | 8 | – | 35.6 |
| Fc1cccc(-c2nccc3[nH]c(-c4n[nH]c5ccc(-c6cccnc6)nc45)cc23)c1 [compound 301] | 105 | 1350 | 8 | – | 44.8 |
| CCC(=O)Nc1cncc(-c2ccc3[nH]nc(-c4cc5c(-c6cccc(F)c6)nccc5[nH]4)c3c2)c1 [compound 302] | 46 | 45 | 6 | – | 16.2 |
| CCC(=O)Nc1cncc(-c2ccc3[nH]nc(-c4cc5c(-c6cccc(F)c6)cncc5[nH]4)c3c2)c1 [compound 303] | 85 | 45 | 15 | – | 33.5 |
| CCC(=O)Nc1cncc(-c2ccc3[nH]nc(-c4cc5c(-c6cccc(F)c6)ccnc5[nH]4)c3c2)c1 [compound 304] | 21 | 13.2 | 16 | – | 167 |
| CCC(=O)Nc1cncc(-c2cnc3[nH]nc(-c4cc5c(-c6cccc(F)c6)cncc5[nH]4)c3c2)c1 [compound 305] | 33 | 246 | 3 | – | 113 |
| CCC(=O)Nc1cncc(-c2cc3c(-c4cc5c(-c6cccc(F)c6)nccc5[nH]4)n[nH]c3cn2)c1 [compound 306] | 138 | 305 | 8 | 30 | 50.8 |
| CC(C)C(=O)Nc1cncc(-c2cc3c(-c4cc5c(-c6cccc(F)c6)cncc5[nH]4)n[nH]c3cn2)c1 [compound 307] | 307 | 1730 | 13 | – | 42.2 |
| CN(C)Cc1cncc(-c2ccc3[nH]nc(-c4cc5c(-c6cccc(F)c6)nccc5[nH]4)c3c2)c1 [compound 308] | 83 | 2940 | 7 | – | 42 |
| CN(C)Cc1cncc(-c2ccc3[nH]nc(-c4cc5c(-c6cccc(F)c6)cncc5[nH]4)c3c2)c1 [compound 309] | 37 | 1280 | 3 | – | 193 |
| CN(C)Cc1cncc(-c2cnc3[nH]nc(-c4cc5c(-c6cccc(F)c6)cncc5[nH]4)c3c2)c1 [compound 310] | 74 | 1180 | 4 | 10 | 110 |
| CN(C)Cc1cncc(-c2cc3c(-c4cc5c(-c6cccc(F)c6)nccc5[nH]4)n[nH]c3cn2)c1 [compound 311] | 218 | 1850 | 3 | 30 | 60 |
| Fc1cccc(-c2nccc3[nH]c(-c4n[nH]c5ccc(-c6cncc(CN7CCCCC7)c6)nc45)cc23)c1 [compound 312] | 252 | 3750 | 4 | – | 48 |
| Fc1cccc(-c2cncc3[nH]c(-c4n[nH]c5ncc(-c6cncc(CN7CCCCC7)c6)cc45)cc23)c1 [compound 313] | 295 | 3120 | 18 | – | 108 |
| O=C(Nc1cncc(-c2cc3c(-c4cc5c(-c6ccc(F)cc6)nccc5[nH]4)n[nH]c3cn2)c1)C1CC1 [compound 314] | 202 | 844 | 10 | 30 | 96.2 |
| Fc1ccc(-c2nccc3[nH]c(-c4n[nH]c5ccc(-c6cncc(CN7CCCC7)c6)cc45)cc23)cc1 [compound 315] | 139 | 3620 | 3 | – | 98.5 |
| Fc1ccc(-c2nccc3[nH]c(-c4n[nH]c5cnc(-c6cncc(CN7CCC(F)(F)C7)c6)cc45)cc23)cc1 [compound 316] | 417 | 291 | 7 | 10 | 61.2 |
| Fc1ccc(-c2cncc3[nH]c(-c4n[nH]c5cnc(-c6cncc(CN7CCC(F)(F)C7)c6)cc45)cc23)cc1 [compound 317] | 9840 | 3260 | 16 | 100 | 78.4 |

— patent US20230000842A1, “METHODS OF TREATING CARTILAGE DISORDERS THROUGH INHIBITION OF CLK AND DYRK” (SAMUMED, LLC, priority 2019, published 2023)
